Experimental data from patent US7838674B2, “Tetracyclic lactame derivatives” (Novartis AG, priority 2007, dated 2010).
pIC50: −log10 of the molar value. Structures can show the parent of a compound that is named as a salt.

Each compound was assayed against T1, MAPKAPK2 enzyme (HIS-MK2, Invitrogen PV4019) (Homo sapiens, UniProt P49137) (assay: Alternative MAPKAPK2 assay (Caliper microfluidic mobility shift, HSP27-peptide)). Details: HIS-MK2 0.013 nM, ATP 10 μM, 60 min at 30° C.
T1 construct: His; purchased Invitrogen PV4019
Assay type: biochemical

T1 sequence (P49137 whole entry): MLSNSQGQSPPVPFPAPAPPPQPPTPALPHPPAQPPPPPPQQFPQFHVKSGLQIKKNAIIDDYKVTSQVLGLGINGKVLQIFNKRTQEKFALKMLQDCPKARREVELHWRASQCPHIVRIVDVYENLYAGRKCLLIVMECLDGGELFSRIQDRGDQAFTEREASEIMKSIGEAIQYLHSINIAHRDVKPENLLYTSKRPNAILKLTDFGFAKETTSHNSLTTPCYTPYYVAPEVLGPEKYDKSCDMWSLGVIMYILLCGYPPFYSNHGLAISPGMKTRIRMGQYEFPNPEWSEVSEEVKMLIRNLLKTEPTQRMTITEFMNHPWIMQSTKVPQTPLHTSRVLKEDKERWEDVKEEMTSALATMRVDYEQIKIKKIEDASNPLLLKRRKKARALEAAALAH

| Compound | pIC50 |
| --- | --- |
| O=C1NCC2(CNC2)c2[nH]c3c(c21)CCc1cnc(-c2ccc(CN4CCOCC4)c(F)c2)nc1-3 [Example 326, 2-(3-Aminomethyl-azetidin-3-yl)-8-(3-fluoro-4-morpholin-4-ylmethyl-phenyl)-4,5-dihydro-1H-1,7,9-triaza-cyclopenta[a]naphthalene-3-carboxylic acid lactam] | 7.82 |
| CN1CCN(c2ccc(-c3cc4c(cn3)CCc3c-4[nH]c4c3C(=O)NC3(CC3)C43CC3)cc2)CC1 [Example 221, 2-(1′-Amino-bicyclopropyl-1-yl)-8-[4-(4-methyl-piperazin-1-yl)-phenyl]-4,5-dihydro-1H-pyrrolo[2,3-f]isoquinoline-3-carboxylic acid lactam] | 7.54 |
| CC(=O)N1CCN(c2ccc(-c3cc4c(cn3)CCc3c-4[nH]c4c3C(=O)NCC43CC3)cc2C#N)CC1 [Example 313, 2-(4-Acetyl-piperazin-1-yl)-10-spirocyclopropyl-5-(7-oxo-6,7,8,9,10,11-hexahydro-5H-3,8,11-triaza-benzo[a]fluoren-2-yl)-benzonitrile] | 8.10 |
| O=C1NC2(CC2)Cc2[nH]c3c(c21)CCc1cnc(Oc2ccc(F)cc2F)nc1-3 [Example 266, 2-(1-Amino-cyclopropylmethyl)-8-(2,4-difluoro-phenoxy)-4,5-dihydro-1H-1,7,9-triaza-cyclopenta[a]naphthalene-3-carboxylic acid lactam] | < 8.00 |

What follows are compounds tested against human MK2 (Homo sapiens, UniProt P49137) (assay: MAPKAPK2 kinase assay (TR-FRET, Hsp27 peptide substrate)). Details: not given.
Chain of human MK2 (P49137 whole entry): as above

| Compound | pIC50 |
| --- | --- |
| COCc1ccc(CNC(=O)c2cccc(-c3cc4c(cn3)CCc3c-4[nH]c4c3C(=O)NC3(CC3)C4)c2)cc1 [Example 273] | 7.72 |
| N#Cc1cc(-c2cc3c(cn2)CCc2c-3[nH]c3c2C(=O)NCC32CC2)ccc1OCCN1CCOCC1 [Example 305, 2-(2-Morpholin-4-yl-ethoxy)-5-(7-oxo-10-spirocyclopropyl-6,7,8,9,10,11-hexahydro-5H-3,8,11-triaza-benzo[a]fluoren-2-yl)-benzonitrile] | 7.92 |
| CN1CCN(c2ccc(-c3cc4c(cn3)CCc3c-4[nH]c4c3C(=O)NCC43CC3)cc2C#N)CC1 [Example 306, 2-(4-Methyl-piperazin-1-yl)-5-(7-oxo-10-spirocyclopropyl-6,7,8,9,10,11-hexahydro-5H-3,8,11-triaza-benzo[a]fluoren-2-yl)-benzonitrile] | 8.05 |
| COc1ccc(-c2ncc3c(n2)-c2[nH]c4c(c2CC3)C(=O)NC2(CNC2)C4)cc1 [Example 18, 2-(3-Amino-azetidin-3-ylmethyl)-8-(4-methoxy-phenyl)-4,5-dihydro-1H-1,7,9-triaza-cyclopenta[a]naphthalene-3-carboxylic acid lactame hydrochloride] | 7.74 |
| CCOc1ccc(-c2cc3c(cn2)CCc2c-3[nH]c3c2C(=O)NC2(CC2)C3)cn1 [Example 90, 2-(1-Amino-cyclopropylmethyl)-8-(6-ethoxy-pyridin-3-yl)-4,5-dihydro-1H-pyrrolo[2,3-f]isoquinoline-3-carboxylic acid lactam] | 7.04 |
| O=C1NCC2(CNC2)c2[nH]c3c(c21)CCc1cnc(-c2ccc(C(F)(F)F)nc2)cc1-3 [Example 166, 2-(3-Aminomethyl-azetidin-3-yl)-8-(6-trifluoromethyl-pyridin-3-yl)-4,5-dihydro-1H-pyrrolo[2,3-f]isoquinoline-3-carboxylic acid lactam hydrochloride] | 8.15 |
| CN1CC2(CNC(=O)c3c2[nH]c2c3CCc3cnc(-c4ccc(C(F)(F)F)nc4)cc3-2)C1 [Example 168, 2-(3-Aminomethyl-1-methyl-azetidin-3-yl)-8-(6-trifluoromethyl-pyridin-3-yl)-4,5-dihydro-1H-pyrrolo[2,3-f]isoquinoline-3-carboxylic acid lactam] | 7.85 |
| O=C1NC2(CC2)Cc2[nH]c3c(c21)CCc1cnc(-c2cncc(OC4CCOCC4)c2)cc1-3 [Example 94, 2-(1-Amino-cyclopropylmethyl)-8-[5-(tetrahydro-pyran-4-yloxy)-pyridin-3-yl]-4,5-dihydro-1H-pyrrolo[2,3-f]isoquinoline-3-carboxylic acid lactam] | 7.28 |
| O=C1NC2(CNC2)Cc2[nH]c3c(c21)CCc1cnc(-c2cccc(F)c2)cc1-3 [Example 24, 2-(3-Amino-azetidin-3-ylmethyl)-8-(3-fluoro-phenyl)-4,5-dihydro-1H-pyrrolo[2,3-f]isoquinoline-3-carboxylic acid lactam hydrochloride] | 7.89 |
| O=C1NC2(CC2)Cc2[nH]c3c(c21)CCc1cnc(-c2cccnc2)cc1-3 [Example 93, 2-(1-Amino-cyclopropylmethyl)-8-pyridin-3-yl-4,5-dihydro-1H-pyrrolo[2,3-f]isoquinoline-3-carboxylic acid lactam] | 7.29 |
| O=C1NCC2(CC2)c2[nH]c3c(c21)CCc1cnc(/C=C/c2ccccc2)cc1-3 [Example 2, 2-(1-Aminomethyl-cyclopropyl)-8-((E)-styryl)-4,5-dihydro-1H-pyrrolo[2,3-f]isoquinoline-3-carboxylic acid lactame] | 7.68 |
| Cn1c2c(c3c1C1(CNC1)CNC3=O)CCc1cnc(-c3ccc(C(F)(F)F)nc3)cc1-2 [Example 169, 2-(3-Aminomethyl-azetidin-3-yl)-8-(6-trifluoromethyl-pyridin-3-yl)-1-methyl-4,5-dihydro-1H-pyrrolo[2,3-f]isoquinoline-3-carboxylic acid lactam hydrochloride] | 7.03 |
| O=C1NC2(CC2)Cn2nc3c(c21)CCc1cnc(/C=C/c2ccccc2)cc1-3 [Example 10, 2-(1-Amino-cyclopropylmethyl)-8-((E)-styryl)-4,5-dihydro-2H-1,2,7-triaza-cyclopenta[a]naphthalene-3-carboxylic acid lactame] | < 8.00 |
| COCCOc1cncc(-c2cc3c(cn2)CCc2c-3[nH]c3c2C(=O)NC2(CCC2)C3)c1 [Example 3, 2-(1-Amino-cyclobutylmethyl)-8-[5-(2-methoxy-ethoxy)-pyridin-3-yl]-4,5-dihydro-1H-pyrrolo[2,3-f]isoquinoline-3-carboxylic acid lactame] | 7.20 |
| Cc1cncc(-c2cc3c(cn2)CCc2c-3[nH]c3c2C(=O)NC2(CC2)C3)c1 [Example 84, 2-(1-Amino-cyclopropylmethyl)-8-(5-methyl-pyridin-3-yl)-4,5-dihydro-1H-pyrrolo[2,3-f]isoquinoline-3-carboxylic acid lactam] | 7.41 |
| O=C1NC2(CCC2)Cc2[nH]c3c(c21)CCc1cnc(-c2cncc(OC4CCOCC4)c2)cc1-3 [Example 109, 2-(1-Amino-cyclobutylmethyl)-8-[5-(tetrahydro-pyran-4-yloxy)-pyridin-3-yl]-4,5-dihydro-1H-pyrrolo[2,3-f]isoquinoline-3-carboxylic acid lactam] | 7.38 |
| COCCOc1ccc(-c2cc3c(cn2)CCc2c-3[nH]c3c2C(=O)NCC32CC2)cc1C#N [Example 309, 2-(2-Methoxy-ethoxy)-5-(7-oxo-10-spirocyclopropyl-6,7,8,9,10,11-hexahydro-5H-3,8,11-triaza-benzo[a]fluoren-2-yl)-benzonitrile] | 7.70 |
| O=C1NC2(CC2)Cc2[nH]c3c(c21)CCc1cnc(-c2ccc(OC4CCOCC4)nc2)cc1-3 [Example 96, 2-(1-Amino-cyclopropylmethyl)-8-[6-(tetrahydro-pyran-4-yloxy)-pyridin-3-yl]-4,5-dihydro-1H-pyrrolo[2,3-f]isoquinoline-3-carboxylic acid lactam] | 7.35 |
| COCCOc1cc(-c2cc3c(cn2)CCc2c-3[nH]c3c2C(=O)NCC32CC2)ccc1F [Example 310, 2-[4-Fluoro-3-(2-methoxy-ethoxy)-phenyl]-10-spirocyclopropyl-5,6,8,9,10,11-hexahydro-3,8,11-triaza-benzo[a]fluoren-7-one] | 7.01 |
| O=C1NC2(CC2)Cc2[nH]c3c(c21)CCc1cnc(-c2ccc(N4CCCCC4)nc2)cc1-3 [Example 83, 2-(1-Amino-cyclopropylmethyl)-8-(3,4,5,6-tetrahydro-2H-[1,2′]bipyridinyl-5′-yl)-4,5-dihydro-1H-pyrrolo[2,3-f]isoquinoline-3-carboxylic acid lactam] | 7.14 |
| O=C1NC2(CC2)Cc2[nH]c3c(c21)CCc1cnc(-c2ccc(Oc4ccc(F)cc4F)nc2)cc1-3 [Example 95, 2-(1-Amino-cyclopropylmethyl)-8-[6-(2,4-difluoro-phenoxy)-pyridin-3-yl]-4,5-dihydro-1H-pyrrolo[2,3-f]isoquinoline-3-carboxylic acid lactam] | 7.00 |
| O=C1NC2(CCC2)Cc2[nH]c3c(c21)CCc1cnc(-c2ccc(OC4CCOCC4)nc2)cc1-3 [Example 108, 2-(1-Amino-cyclobutylmethyl)-8-[6-(tetrahydro-pyran-4-yloxy)-pyridin-3-yl]-4,5-dihydro-1H-pyrrolo[2,3-f]isoquinoline-3-carboxylic acid lactam] | 7.31 |
| O=C1NC2(CCC2)Cc2[nH]c3c(c21)CCc1cnc(-c2ccc(CN4CCOCC4)c(F)c2)cc1-3 [Example 110, 2-(1-Amino-cyclobutylmethyl)-8-(3-fluoro-4-morpholin-4-ylmethyl-phenyl)-4,5-dihydro-1H-pyrrolo[2,3-f]isoquinoline-3-carboxylic acid lactam] | 7.08 |
| O=C1NC2(CNC2)Cc2[nH]c3c(c21)CCc1cnc(-c2cccc(F)c2)nc1-3 [Example 26, 2-(3-Amino-azetidin-3-ylmethyl)-8-(3-fluoro-phenyl)-4,5-dihydro-1H-1,7,9-triaza-cyclopenta[a]naphthalene-3-carboxylic acid lactam hydrochloride] | 7.82 |
| O=C1NC2(CC2)Cc2[nH]c3c(c21)CCc1cnc(-c2cncc(F)c2)cc1-3 [Example 89, 2-(1-Amino-cyclopropylmethyl)-8-(5-fluoro-pyridin-3-yl)-4,5-dihydro-1H-pyrrolo[2,3-f]isoquinoline-3-carboxylic acid lactam] | 7.10 |
| O=C1NC2(CCC2)Cc2[nH]c3c(c21)CCc1cnc(/C=C/c2ccccc2)cc1-3 [Example 4, 2-(1-Amino-cyclobutylmethyl)-8-((E)-styryl)-4,5-dihydro-1H-pyrrolo[2,3-f]isoquinoline-3-carboxylic acid lactame] | 7.19 |
